The target of assay [1] is human recombinant FGFR1 catalytic structural domain protein (Homo sapiens (Human), UniProt P11362). The assay is described as follows: FGFR1 activity inhibition test (HTRF kinase assay). The assay is classed as biochemical. The following applies: 40 μM ATP. On the procedure: FGFR1 Activity Inhibition Test
The influence of the compound according to the present invention on the activity of fibroblast growth factor receptor 1 (FGFR1) was evaluated by an in vitro kinase assay experiment.
(§1) The experimental method is summarized as follows:
The in vitro activity of FGFR1 was determined by assaying the phosphorylation level of the substrate in the kinase reaction, by means of an HTRF kinase assay kit.
(§2) If the IC50 value of the compound was very low, the initial concentration of the compound could be reduced.
After 60 min, the enzyme reaction was terminated by EDTA in the assay solution, and the phosphorylated products were identified by both the Eu^3+ labeled cage-shaped antibody (donor) and the streptavidin labeled XL665 antibody (receptor) at the same time. […] The inhibition percentage of the compound against FGFR1 activity could be calculated with the following formula: Inhibition percentage=100−100*(signalcompound−signalnegative control)/(signalpositive control−signalnegative control)
The IC50 value of the compound was calculated by the following formula, from 10 concentration points, with XLfit (ID Business Solutions Ltd., UK): Y=Bottom+(Top−Bottom)/(1+10^((Log IC50−X)*slope factor))
Where, Y is the inhibition percentage, Bottom is the bottom plateau of the curve (the bottom plateau of the S-type curve), Top is the top plateau of the curve (the top plateau of the S-type curve), and X is the log value of the compound concentration to be measured.

The target in assay [2] is human recombinant FGFR4 catalytic structural domain protein (Homo sapiens (Human), UniProt P22455). The assay can be described thus: FGFR4 activity inhibition test (HTRF kinase assay). In kind it is biochemical. The following applies: 90 μM ATP. On the procedure: FGFR4 Activity Inhibition Test
Sequence of human recombinant FGFR4 catalytic structural domain protein (P22455 460-802): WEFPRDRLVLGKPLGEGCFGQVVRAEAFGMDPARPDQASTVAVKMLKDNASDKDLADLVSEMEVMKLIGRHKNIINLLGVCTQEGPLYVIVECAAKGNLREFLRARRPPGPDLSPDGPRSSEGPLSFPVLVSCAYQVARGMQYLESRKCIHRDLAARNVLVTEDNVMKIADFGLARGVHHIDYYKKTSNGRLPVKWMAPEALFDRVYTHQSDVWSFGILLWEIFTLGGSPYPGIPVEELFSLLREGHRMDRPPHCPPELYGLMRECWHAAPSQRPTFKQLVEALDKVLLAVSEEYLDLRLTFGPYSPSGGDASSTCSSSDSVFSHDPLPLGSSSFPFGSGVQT
The influence of the compound according to the present invention on the activity of fibroblast growth factor receptor 4 (FGFR4) was evaluated by an in vitro kinase assay experiment.
as §1
The in vitro activity of FGFR4 was determined by assaying the phosphorylation level of the substrate in the kinase reaction, by means of an HTRF kinase assay kit.
as §2
After 60 min, the enzyme reaction was terminated by EDTA in the assay solution, and the phosphorylated products were identified by both the Eu^3+ labeled cage-shaped antibody (donor) and the streptavidin labeled XL665 antibody (receptor) at the same time. […] The inhibition percentage of the compound against FGFR4 activity could be calculated with the following formula: Inhibition percentage=100−100*(signalcompound−signalnegative control)/(signalpositive control−signalnegative control)
The IC50 value of the compound was calculated by the following formula, from 10 concentration points, with XLfit (ID Business Solutions Ltd., UK): Y=Bottom+(Top−Bottom)/(1+10^((Log IC50−X)*slope factor)) Where, Y is the inhibition percentage, Bottom is the bottom plateau of the curve (the bottom plateau of the S-type curve), Top is the top plateau of the curve (the top plateau of the S-type curve), and X is the log value of the compound concentration to be measured.

The subject of assay [3] is FGF19/FGFR4-overexpressed Hep3B hepatocellular carcinoma (HCC) xenograft tumors. In kind it is in vivo. The following applies: 40 mg/kg QD, oral. On the procedure: Data points represent group mean, error bars represent standard error of the mean (SEM). *P<0.05, **P<0.01, ***P<0.001, ****P<0.0001, NS P>0.05 vs vehicle group.
The relative change of body weights (% RCBW) was calculated based on the following formula: RCBW (%)=(BWi−BW0)/BW0×100%, BWi was the bodyweight on the day of dosing and BW0 was the bodyweight on the first day of administration. Data points represent percent group mean change in BW. Error bars represent standard error of the mean (SEM).
Dosing was initiated on day 0 and effects on tumor growth were evaluated by measuring percent tumor growth inhibition (TGI) at the end of the study. Tolerability was assessed by body weight loss, lethality, and clinical signs of adverse treatment-related side effects. Tumor volumes and body weights were measured twice per week in the administration period. The percentage of TGI was determined on day 18 of the study. The difference between the mean values of tumor volume in treatment and vehicle groups was analyzed for significance using one-way ANOVA (followed by Dennett's test) at each time point and a P<0.05 was considered to be statistically significant.

SMILES strings stand for the structures.

Sequence of human recombinant FGFR1 catalytic structural domain protein (P11362 other isoform, or with tags, fused parts or gaps): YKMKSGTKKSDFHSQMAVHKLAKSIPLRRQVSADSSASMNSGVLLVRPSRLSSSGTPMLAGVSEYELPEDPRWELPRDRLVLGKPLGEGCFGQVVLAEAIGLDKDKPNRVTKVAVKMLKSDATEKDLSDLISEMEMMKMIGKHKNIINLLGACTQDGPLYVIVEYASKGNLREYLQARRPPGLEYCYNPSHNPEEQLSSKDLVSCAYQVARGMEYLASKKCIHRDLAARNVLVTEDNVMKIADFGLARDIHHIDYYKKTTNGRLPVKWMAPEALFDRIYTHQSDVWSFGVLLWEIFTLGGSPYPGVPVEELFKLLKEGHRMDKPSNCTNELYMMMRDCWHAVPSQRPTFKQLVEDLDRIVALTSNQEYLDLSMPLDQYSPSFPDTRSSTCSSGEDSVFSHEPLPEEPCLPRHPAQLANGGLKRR

For the molecule `CN(C(=O)Nc1cc(Cl)ncn1)c1cccc(C=O)n1` [Compound 2, 3-(6-chloropyrimidin-4-yl)-1-(6-formylpyrid-2-yl)-1-methylurea], the IC50 in assay [1] was > 1000 nM; in assay [2], 100 to 1000 nM. With `CN1CCN(Cc2ccc(N(C)C(=O)Nc3cc(Cl)c(C#N)cn3)nc2C=O)C(=O)C1` [Compound 17, 3-(4-chloro-5-cyanopyrid-2-yl)-1-(6-formyl-5-((4-methyl-2-carbonylpiperazin-1-yl)methyl)pyrid-2-yl)-1-methyl urea], the IC50 in assay [2] lay within 100 to 1000 nM.

With `CC(C)Oc1cc(NC(=O)N(C)c2cccc(C=O)n2)ncc1C#N` [Compound 6, 3-(5-cyano-4-isopropoxypyrid-2-yl)-1-(6-formylpyrid-2-yl)-1-methylurea], the IC50 was > 1000 nM in assay [1] and < 10 nM in assay [2]. With `COCCNc1cc(NC(=O)N(C)c2cccc(C=O)n2)ncc1C#N` [Compound 1, 3-(5-cyano-4-((2-methoxyethyl)amino)pyrid-2-yl)-1-(6-formylpyrid-2-yl)-1-methyl urea], the half-inhibitory concentration (IC50) in assay [1] was > 1000 nM. As for `CN(C(=O)Nc1ccc(C#N)cn1)c1cccc(C=O)n1` [Compound 3, 3-(5-cyanopyrid-2-yl)-1-(6-formylpyrid-2-yl)-1-methylurea], the values for the IC50 in assay [1] and in assay [2] were > 1000 nM and 10 to 100 nM, respectively. On the same counts, the results for `COCCNc1cc(NC(=O)N(C)c2nccc(C=O)n2)ncc1C#N` [Compound 8, 3-(5-cyano-4-((2-methoxyethyl)amino)pyrid-2-yl)-1-(4-formylpyrimidin-2-yl)-1-methylurea] are > 1000 nM and 100 to 1000 nM. As for `CNC(=O)c1cc(Oc2ccc(NC(=O)Nc3ccc(Cl)c(C(F)(F)F)c3)cc2)ccn1` [sorafenib, reference compound], in assay [3], the “antitumor activity (in words)” value was “some antitumor activity”. With `CC(C)Nc1cc(NC(=O)N(C)c2cccc(C=O)n2)ncc1C#N` [Compound 5, 3-(5-cyano-4-(isopropylamino)pyrid-2-yl)-1-(6-formylpyrid-2-yl)-1-methylurea], the figures for the IC50 in assay [1] and in assay [2] were > 1000 nM and < 10 nM, respectively. The corresponding values for `COCCOc1cc(NC(=O)N(C)c2cccc(C=O)n2)ncc1C#N` [Compound 7, 3-(5-cyano-4-(2-methoxyethoxy)pyrid-2-yl)-1-(6-formylpyrid-2-yl)-1-methylurea] are > 1000 nM and < 10 nM.

For the origin of these results see patent publication US10590109B2, “Heterocyclic compounds used as FGFR inhibitors” (Nanjing InnoCare Pharma Tech Co., Ltd., priority 2016, dated 2020).
